According to article PMC8699473, “An Easily Expandable Multi-Drug LC-MS Assay for the Simultaneous Quantification of 57 Oral Antitumor Drugs in Human Plasma” (Cancers, 2021):

Assay: Long-term stability in spiked pooled human plasma

SMILES | Long-term stability, 1 month, -20°C Accuracy [%] (validation standard 2xLLOV) | Long-term stability, 1 month, -80°C Accuracy [%] (validation standard 2xLLOV) | Long-term stability, 2 month, -80°C Accuracy [%] (validation standard 2xLLOV) | Long-term stability, 3 month, -20°C Accuracy [%] (validation standard 2xLLOV) | Long-term stability, 3 month, -80°C Accuracy [%] (validation standard 2xLLOV) | Long-term stability, 6 weeks, 4°C, without daylight Accuracy [%] (validation standard 2xLLOV) | Long-term stability, 1 month, -20°C Accuracy [%] (validation standard LLOV) | Long-term stability, 1 month, -80°C Accuracy [%] (validation standard LLOV) | Long-term stability, 2 month, -20°C Accuracy [%] (validation standard LLOV) | Long-term stability, 2 month, -80°C Accuracy [%] (validation standard LLOV) | Long-term stability, 3 month, -20°C Accuracy [%] (validation standard LLOV) | Long-term stability, 3 month, -80°C Accuracy [%] (validation standard LLOV) | Long-term stability, 6 weeks, 4°C, without daylight Accuracy [%] (validation standard LLOV) | Long-term stability, 1 month, -20°C Accuracy [%] (validation standard MOV) | Long-term stability, 1 month, -80°C Accuracy [%] (validation standard MOV) | Long-term stability, 2 month, -20°C Accuracy [%] (validation standard MOV) | Long-term stability, 2 month, -80°C Accuracy [%] (validation standard MOV) | Long-term stability, 3 month, -20°C Accuracy [%] (validation standard MOV) | Long-term stability, 3 month, -80°C Accuracy [%] (validation standard MOV) | Long-term stability, 6 weeks, 4°C, without daylight Accuracy [%] (validation standard MOV) | also measured
C[C@]12CC[C@H](O)CC1=CC[C@@H]1[C@@H]2CC[C@]2(C)C(c3cccnc3)=CC[C@@H]12 [Abiraterone] | 96.2% | 93.5% | 100.1% | 97.2% | 97.9% | 101.6% | 96.5% | 93.2% | 97.0% | 105.8% | 101.7% | 106.0% | 110.7% | 95.8% | 93.5% | 101.2% | 102.9% | 101.8% | 100.6% | 106.4% | Long-term stability, 2 month, -20°C Accuracy [%] (validation standard 2xLLOV): 101.0%; Long-term stability, 1 month, -20°C Accuracy [%] (validation standard ULOV): 98.3%; Long-term stability, 1 month, -80°C Accuracy [%] (validation standard ULOV): 93.2%; Long-term stability, 2 month, -20°C Accuracy [%] (validation standard ULOV): 102.5%; Long-term stability, 2 month, -80°C Accuracy [%] (validation standard ULOV): 103.2%; Long-term stability, 3 month, -20°C Accuracy [%] (validation standard ULOV): 99.7%; Long-term stability, 3 month, -80°C Accuracy [%] (validation standard ULOV): 100.6%; Long-term stability, 6 weeks, 4°C, without daylight Accuracy [%] (validation standard ULOV): 102.8%
CN(C)C/C=C/C(=O)Nc1cc2c(Nc3ccc(F)c(Cl)c3)ncnc2cc1O[C@H]1CCOC1 [Afatinib] | 79.7% | 90.7% | 92.5% | 76.9% | 94.1% | 26.7% | 70.0% | 75.4% | 68.4% | 85.8% | 68.4% | 90.0% | 2.9% | 87.9% | 93.1% | 84.4% | 96.0% | 78.2% | 96.4% | 44.2% | Long-term stability, 2 month, -20°C Accuracy [%] (validation standard 2xLLOV): 72.1%; Long-term stability, 1 month, -20°C Accuracy [%] (validation standard ULOV): 86.5%; Long-term stability, 1 month, -80°C Accuracy [%] (validation standard ULOV): 91.2%; Long-term stability, 2 month, -20°C Accuracy [%] (validation standard ULOV): 88.3%; Long-term stability, 2 month, -80°C Accuracy [%] (validation standard ULOV): 96.0%; Long-term stability, 3 month, -20°C Accuracy [%] (validation standard ULOV): 82.8%; Long-term stability, 3 month, -80°C Accuracy [%] (validation standard ULOV): 92.1%; Long-term stability, 6 weeks, 4°C, without daylight Accuracy [%] (validation standard ULOV): 37.3%
O=C1CN2Cc3c(ccc(Cl)c3Cl)N=C2N1 [Anagrelide] | 99.8% | 105.6% | 118.5% | 110.2% | 114.9% | 74.6% | 103.9% | 121.5% | 128.7% | 141.5% | 101.8% | 118.8% | 33.5% | 95.0% | 97.0% | 101.3% | 98.7% | 95.7% | 95.1% | 103.7% | Long-term stability, 2 month, -20°C Accuracy [%] (validation standard 2xLLOV): 121.4%; Long-term stability, 1 month, -20°C Accuracy [%] (validation standard ULOV): 95.4%; Long-term stability, 1 month, -80°C Accuracy [%] (validation standard ULOV): 90.8%; Long-term stability, 2 month, -20°C Accuracy [%] (validation standard ULOV): 94.5%; Long-term stability, 2 month, -80°C Accuracy [%] (validation standard ULOV): 99.2%; Long-term stability, 3 month, -20°C Accuracy [%] (validation standard ULOV): 94.9%; Long-term stability, 3 month, -80°C Accuracy [%] (validation standard ULOV): 94.7%; Long-term stability, 6 weeks, 4°C, without daylight Accuracy [%] (validation standard ULOV): 97.1%
CNC(=O)c1ccccc1Sc1ccc2c(/C=C/c3ccccn3)n[nH]c2c1 [Axitinib] | 86.8% | 86.83% | 94.2% | 92.9% | 100.1% | 66.5% | 87.8% | 83.07% | 110.1% | 90.5% | 107.3% | 102.5% | 49.2% | 89.8% | 87.50% | 87.7% | 92.2% | 95.9% | 90.5% | 100.5% | Long-term stability, 2 month, -20°C Accuracy [%] (validation standard 2xLLOV): 87.6%; Long-term stability, 1 month, -20°C Accuracy [%] (validation standard ULOV): 92.0%; Long-term stability, 1 month, -80°C Accuracy [%] (validation standard ULOV): 87.13%; Long-term stability, 2 month, -20°C Accuracy [%] (validation standard ULOV): 88.8%; Long-term stability, 2 month, -80°C Accuracy [%] (validation standard ULOV): 91.3%; Long-term stability, 3 month, -20°C Accuracy [%] (validation standard ULOV): 86.8%; Long-term stability, 3 month, -80°C Accuracy [%] (validation standard ULOV): 91.9%; Long-term stability, 6 weeks, 4°C, without daylight Accuracy [%] (validation standard ULOV): 91.2%
COc1cc(N2CCC(N3CCN(C)CC3)CC2)ccc1Nc1ncc(Cl)c(Nc2ccccc2P(C)(C)=O)n1 [Brigatinib] | 92.4% | 92.1% | 110.2% | 96.3% | 99.0% | 94.2% | 93.6% | 88.3% | 100.6% | 96.7% | 92.1% | 93.0% | 89.6% | 100.8% | 96.9% | 108.5% | 107.5% | 105.5% | 106.8% | 104.7% | Long-term stability, 2 month, -20°C Accuracy [%] (validation standard 2xLLOV): 105.4%; Long-term stability, 1 month, -20°C Accuracy [%] (validation standard ULOV): 100.4%; Long-term stability, 1 month, -80°C Accuracy [%] (validation standard ULOV): 95.0%; Long-term stability, 2 month, -20°C Accuracy [%] (validation standard ULOV): 105.8%; Long-term stability, 2 month, -80°C Accuracy [%] (validation standard ULOV): 108.0%; Long-term stability, 3 month, -20°C Accuracy [%] (validation standard ULOV): 102.6%; Long-term stability, 3 month, -80°C Accuracy [%] (validation standard ULOV): 98.7%; Long-term stability, 6 weeks, 4°C, without daylight Accuracy [%] (validation standard ULOV): 98.6%
COc1cc2nccc(Oc3ccc(NC(=O)C4(C(=O)Nc5ccc(F)cc5)CC4)cc3)c2cc1OC [Cabozantinib] | 98.4% | 92.5% | 100.3% | 92.5% | 94.6% | 96.8% | 91.9% | 89.4% | 97.7% | 100.2% | 90.4% | 91.8% | 94.1% | 97.7% | 97.3% | 101.6% | 102.9% | 100.0% | 98.9% | 108.5% | Long-term stability, 1 month, -20°C Accuracy [%] (validation standard ULOV): 95.7%; Long-term stability, 1 month, -80°C Accuracy [%] (validation standard ULOV): 93.1%; Long-term stability, 2 month, -20°C Accuracy [%] (validation standard ULOV): 99.6%; Long-term stability, 2 month, -80°C Accuracy [%] (validation standard ULOV): 100.3%; Long-term stability, 3 month, -20°C Accuracy [%] (validation standard ULOV): 96.3%; Long-term stability, 3 month, -80°C Accuracy [%] (validation standard ULOV): 93.1%; Long-term stability, 6 weeks, 4°C, without daylight Accuracy [%] (validation standard ULOV): 101.8%
Cc1cc(Nc2ncc(Cl)c(Nc3ccccc3S(=O)(=O)C(C)C)n2)c(OC(C)C)cc1C1CCNCC1 [Ceritinib] | 94.3% | 89.5% | 96.4% | 91.8% | 93.4% | 77.8% | 101.5% | 96.1% | 99.7% | 103.7% | 96.9% | 100.3% | 78.9% | 93.3% | 93.7% | 94.6% | 95.5% | 94.1% | 95.7% | 104.9% | Long-term stability, 2 month, -20°C Accuracy [%] (validation standard 2xLLOV): 94.4%; Long-term stability, 1 month, -20°C Accuracy [%] (validation standard ULOV): 97.3%; Long-term stability, 1 month, -80°C Accuracy [%] (validation standard ULOV): 94.0%; Long-term stability, 2 month, -20°C Accuracy [%] (validation standard ULOV): 99.1%; Long-term stability, 2 month, -80°C Accuracy [%] (validation standard ULOV): 100.5%; Long-term stability, 3 month, -20°C Accuracy [%] (validation standard ULOV): 101.8%; Long-term stability, 3 month, -80°C Accuracy [%] (validation standard ULOV): 100.0%; Long-term stability, 6 weeks, 4°C, without daylight Accuracy [%] (validation standard ULOV): 97.9%
O=C(c1ccc(F)c(F)c1Nc1ccc(I)cc1F)N1CC(O)([C@@H]2CCCCN2)C1 [Cobimetinib] | 100.8% | 93.9% | 103.4% | 99.0% | 97.6% | 94.8% | 101.1% | 99.0% | 99.0% | 97.9% | 101.3% | 100.3% | 94.5% | 98.9% | 96.8% | 100.8% | 103.3% | 99.2% | 98.4% | 108.3% | Long-term stability, 2 month, -20°C Accuracy [%] (validation standard 2xLLOV): 98.0%; Long-term stability, 1 month, -20°C Accuracy [%] (validation standard ULOV): 100.6%; Long-term stability, 1 month, -80°C Accuracy [%] (validation standard ULOV): 97.3%; Long-term stability, 2 month, -20°C Accuracy [%] (validation standard ULOV): 104.5%; Long-term stability, 2 month, -80°C Accuracy [%] (validation standard ULOV): 103.6%; Long-term stability, 3 month, -20°C Accuracy [%] (validation standard ULOV): 100.6%; Long-term stability, 3 month, -80°C Accuracy [%] (validation standard ULOV): 98.3%; Long-term stability, 6 weeks, 4°C, without daylight Accuracy [%] (validation standard ULOV): 102.4%
